Data published in ChEMBL document CHEMBL1142152, “Inhibition of anthrax protective antigen outside and inside the cell” (Antimicrob Agents Chemother, 2007).
Activity calls are given as the source filed them. The rule behind the calls is not given here.

Columns and labels:
Format in all cases: functional, cell-based
Mus musculus = species on record: Mus musculus; experiment: Cell viability in mouse RAW264.7 cells by LeTx protection assay
CHO [1] = experiment: Blockade of PA-induced toxicity in CHO cells expressing TEM8 assessed as cell viability at 5 uM after 48 hrs; details: Cricetulus griseus
KDR = experiment: Protection of SLT-VEGF induced toxicity in 293/KDR cells; details: Homo sapiens
CHO [2] = experiment: Inhibition of PA-induced apoptosis in CHO cells expressing TEM8 receptor cells at 5 uM after 24 hrs; details: Cricetulus griseus
CHO [3] = experiment: Inhibition of LFn-Lip uptake in CHO cells expressing TEM8 receptor at 100 uM after 1 hrs; details: Cricetulus griseus
CHO [4] = experiment: Inhibition of LFn-A1 uptake in CHO cells expressing TEM8 receptor at 100 uM; details: Cricetulus griseus

Question: Which IC50 (Mus musculus) does the source give for `NCCCSC[C@H]1O[C@@H]2O[C@H]3[C@H](O)[C@@H](O[C@H]4[C@H](O)[C@@H](O)[C@@H](O[C@H]5[C@H](O)[C@@H](O)[C@@H](O[C@H]6[C@H](O)[C@@H](O)[C@@H](O[C@H]7[C@H](O)[C@@H](O)[C@@H](O[C@H]8[C@H](O)[C@@H](O)[C@@H](OC1[C@H](O)[C@H]2O)O[C@@H]8CSCCCN)O[C@@H]7CSCCCN)O[C@@H]6CSCCCN)O[C@@H]5CSCCCN)O[C@@H]4CSCCCN)[C@@H](O)O[C@@H]3CSCCCN` here?
Answer: 7 µM

Question: What about the Activity (CHO [1]) of the same molecule?
Answer: Active

Question: What about the Activity (KDR) of the same molecule?
Answer: inactive

Question: What about the Activity (CHO [2]) of the same molecule?
Answer: Active

Question: And the Activity (CHO [3])?
Answer: inactive

Question: What about the Activity (CHO [4]) of the same molecule?
Answer: Active
